ChEMBL document CHEMBL1137781, “Synthesis and preclinical evaluation of novel PET probes for P-glycoprotein function and expression” (J Med Chem, 2009)

Columns and labels:
Caco-2 = test: Ratio of permeability from basolateral to apical side over apical to basolateral side in human Caco-2 cells; format: ADME, cell-based
NCI/ADR-RES [1] = test: Inhibition of Pgp in human MCF7/ADR cells assessed as increase in doxorubicin accumulation at 20 uM relative to untreated control; format: cell-based
NCI/ADR-RES [2] = test: Inhibition of Pgp in human MCF7/ADR cells assessed as potentiation of doxorubicin-induced cytotoxicity at 20 uM relative to untreated control; format: cell-based

COc1cc2c(cc1OC)CN(CC/C=C1\CCCc3c(OC)cccc31)CC2 was tested, and the Ratio (Caco-2) was 1.6, the fold change (FC) (NCI/ADR-RES [1]) was 5.7 and the fold change (FC) (NCI/ADR-RES [2]) was 95.
